Measurements: US20240099304A1, “SYNERGISTIC HERBICIDAL COMPOSITIONS OF METAMIFOP” (Parijat Industries (India) Private Limited, priority 2021, published 2024)

How the values were obtained:
Assay type in all cases: in vivo
Brachiaria eruciformis = assay: Field efficacy on grass weed in soybean, post-emergence foliar application
Protocol: (§1) As described in the Herbicide Handbook of the Weed Science Society of America, Ninth Edition, 2007, p. 429, “synergism” [is] an interaction of two or more factors such that the effect when combined is greater than the predicted effect based on the response to each factor applied separately. In the Colby method, the expected (or predicted) response of a combination of herbicides is calculated by taking the product of the observed response for each individual component of the combination when applied alone divided by 100 and subtracting this value from the sum of the observed response for each component while applied alone. An unexpected enhancement in efficacy of the combination is then determined by comparing the observed response of the combination to the expected (or predicted) response as calculated from the observed response of each individual component alone. If the observed response of the combination is greater than the expected (or predicted) response, or stated conversely, if the difference between the observed and expected response is greater than zero, then the combination is said to be synergistic or unexpectedly effective. (Colby, S. R., Weeds, 1967(15), p. 20-22). The Colby method required only a single dose of each herbicide applied alone and the mixture of both doses.
(§2) Synergy Study: The following formula was used to calculate the expected activity of mixtures containing active ingredients, A and B:
(§3) • A=Observed efficacy of active ingredient (combination of Metamifop and Imidazolinone herbicides) A at the same concentration as used in the mixture. • B=observed efficacy of active ingredient B at the same concentration as used in the mixture. However, following formula was used to calculate the expected activity of mixtures containing three active ingredients, A, B and C:
(§4) • A=observed efficacy of active ingredient (combination of Metamifop and Imidazolinone herbicides) A at the same concentration as used in the mixture. • B=observed efficacy of active ingredient B at the same concentration as used in the mixture. • C=observed efficacy of active ingredient C at the same concentration as used in the mixture.
(§5) EFFICACY STUDY: The field experiments were carried out to test the synergy of the combination Metamifop, Imazethapyr, and Imazamox in India at various locations like in MP, Maharashtra, Karnataka, and Telangana on farmer's field against soybean weeds during Kharif season. The experiment comprising of 15 treatments including premixed binary and ternary combinations along with their stand-alone molecule using a randomized block design replicated thrice. All the treatments were applied as post-emergence foliar application when the weeds reached to two to four leaf stage. The spray was conducted with the help of Battery-operated Knapsack sprayer. The percentage efficacy was calculated after 14 and 21 days after application of herbicides.
(§6) The weeds present in the experimental fields were echinochloa conola, echinochloa crusgalli, brachiaria euriciformis, rottboellia cochinchinensis, cynodon dactylon, parthenium hyterophorus, digera arvensis, cynotis axillaris, acalypha indica, Commelina benghalensis, celosia argentia, cyperus spp.

Echinochloa crusgalli = assay: as above
Protocol: as §1, §2, §3, §4, §5, §6

[1] = system: Rottboellia cochinchinensis; assay: as above
Protocol: as §1, §2, §3, §4, §5, §6

Commelina benghalensis = assay: Field efficacy on broad leaf weed in soybean, post-emergence foliar application
Protocol: as §1, §2, §3, §4, §5, §6

Cyanotis axillaris = assay: as above
Protocol: as §1, §2, §3, §4, §5, §6

Parthenium hysterophorus = assay: as above
Protocol: as §1, §2, §3, §4, §5, §6

Soybean = assay: Phytotoxicity in Soybean, visual grading on 0-10 scale; details: soybean, in vivo
Protocol: as §5
Phytotoxic effect of herbicidal combination of Metamifop, Imazethapyr and Imazamox in soyabean: Table 5, 10 show the visual observations and grading on phytotoxicity which was recorded for leaf injury on tip/surface, Epinasty/Hyponasty, and wilting etc. on 0-10 scale (as below) at 1, 3, 7, 14 and 21 days after application of the present herbicidal composition.

[2] = system: hard to kill broad leaf weeds; assay: Field efficacy, summary on broad leaf weeds
Protocol: as §1, §5

[3] = 14 DAA, Imazethapyr 35 gm ai/ha
[4] = 14 DAA, Imazethapyr 40 gm ai/ha
[5] = 14 DAA, Imazethapyr 50 gm ai/ha
[6] = 14 DAA, Imazethapyr 75.375 gm ai/ha
[7] = 21 DAA, Imazethapyr 35 gm ai/ha
[8] = 21 DAA, Imazethapyr 40 gm ai/ha
[9] = 21 DAA, Imazethapyr 50 gm ai/ha
[10] = 21 DAA, Imazethapyr 75.375 gm ai/ha

Structure (SMILES): CCc1cnc(C2=NC(C)(C(C)C)C(=O)N2)c(C(=O)O)c1 (stereo not shown) [Imazethapyr]
- % Weed control burn down symptoms generation Observed (Brachiaria eruciformis; [3]): 8%
- % Weed control burn down symptoms generation Observed (Brachiaria eruciformis; [4]): 10%
- % Weed control burn down symptoms generation Observed (Brachiaria eruciformis; [5]): 20%
- % Weed control burn down symptoms generation Observed (Brachiaria eruciformis; [6]): 22%
- % Weed control burn down symptoms generation Observed (Brachiaria eruciformis; [7]): 0%
- % Weed control burn down symptoms generation Observed (Brachiaria eruciformis; [8]): 0%
- % Weed control burn down symptoms generation Observed (Brachiaria eruciformis; [9]): 0%
- % Weed control burn down symptoms generation Observed (Brachiaria eruciformis; [10]): 15%
- % Weed control burn down symptoms generation Observed (Echinochloa crusgalli; [3]): 15%
- % Weed control burn down symptoms generation Observed (Echinochloa crusgalli; [4]): 18%
- % Weed control burn down symptoms generation Observed (Echinochloa crusgalli; [5]): 18%
- % Weed control burn down symptoms generation Observed (Echinochloa crusgalli; [6]): 20%
- % Weed control burn down symptoms generation Observed (Echinochloa crusgalli; [7]): 8%
- % Weed control burn down symptoms generation Observed (Echinochloa crusgalli; [8]): 12%
- % Weed control burn down symptoms generation Observed (Echinochloa crusgalli; [9]): 16%
- % Weed control burn down symptoms generation Observed (Echinochloa crusgalli; [10]): 18%
- % Weed control burn down symptoms generation Observed [1, 3]: 0%
- % Weed control burn down symptoms generation Observed [1, 4]: 0%
- % Weed control burn down symptoms generation Observed [1, 5]: 25%
- % Weed control burn down symptoms generation Observed [1, 6]: 30%
- % Weed control burn down symptoms generation Observed [1, 7]: 0%
- % Weed control burn down symptoms generation Observed [1, 8]: 0%
- % Weed control burn down symptoms generation Observed [1, 9]: 0%
- % Weed control burn down symptoms generation Observed [1, 10]: 0%
- % Weed control burn down symptoms generation Observed (Commelina benghalensis; [3]): 6%
- % Weed control burn down symptoms generation Observed (Commelina benghalensis; [4]): 22%
- % Weed control burn down symptoms generation Observed (Commelina benghalensis; [5]): 35%
- % Weed control burn down symptoms generation Observed (Commelina benghalensis; [6]): 56%
- % Weed control burn down symptoms generation Observed (Commelina benghalensis; [7]): 0%
- % Weed control burn down symptoms generation Observed (Commelina benghalensis; [8]): 13%
- % Weed control burn down symptoms generation Observed (Commelina benghalensis; [9]): 20%
- % Weed control burn down symptoms generation Observed (Commelina benghalensis; [10]): 45%
- % Weed control burn down symptoms generation Observed (Cyanotis axillaris; [3]): 12%
- % Weed control burn down symptoms generation Observed (Cyanotis axillaris; [4]): 25%
- % Weed control burn down symptoms generation Observed (Cyanotis axillaris; [5]): 447%
- % Weed control burn down symptoms generation Observed (Cyanotis axillaris; [6]): 0%
- % Weed control burn down symptoms generation Observed (Cyanotis axillaris; [7]): 0%
- % Weed control burn down symptoms generation Observed (Cyanotis axillaris; [8]): 7%
- % Weed control burn down symptoms generation Observed (Cyanotis axillaris; [9]): 20%
- % Weed control burn down symptoms generation Observed (Cyanotis axillaris; [10]): 36%
- % Weed control burn down symptoms generation Observed (Parthenium hysterophorus; [3]): 0%
- % Weed control burn down symptoms generation Observed (Parthenium hysterophorus; [4]): 6%
- % Weed control burn down symptoms generation Observed (Parthenium hysterophorus; [5]): 11%
- % Weed control burn down symptoms generation Observed (Parthenium hysterophorus; [6]): 28%
- % Weed control burn down symptoms generation Observed (Parthenium hysterophorus; [7]): 0%
- % Weed control burn down symptoms generation Observed (Parthenium hysterophorus; [8]): 4%
- % Weed control burn down symptoms generation Observed (Parthenium hysterophorus; [9]): 6%
- % Weed control burn down symptoms generation Observed (Parthenium hysterophorus; [10]): 15%
- Phytotoxicity score (Soybean; 1 days after application): 0
- Phytotoxicity score (Soybean; 3 days after application): 0
- Phytotoxicity score (Soybean; 7 days after application): 0
- Phytotoxicity score (Soybean; 14 days after application): 0
- Phytotoxicity score (Soybean; 21 days after application): 0
- Control on targeted weeds, applied alone ([2]; at 14 days): no or very less control
- Control on targeted weeds, applied alone ([2]; at 21 days): no or very less control
